In US20260007679A1, “METHODS OF TREATING CANCER USING 3-(4-((4-(MORPHOLINOMETHYL)BENZYL)OXY)-1-OXOISOINDOLIN-2-YL)PIPERIDINE-2,6-DIONE” (Celgene Corporation, priority 2012, published 2026):
Read-outs that look alike come from different tables or passages of the source.

What was measured:
[1] = system: WSU-DLCL2 DLBCL xenograft; assay: WSU-DLCL2 DLBCL xenograft model
[2] = system: DoHH2 Follicular Lymphoma xenograft; assay: DoHH2 Follicular Lymphoma xenograft model; type: in vivo, mouse
[3] = system: megakaryocyte progenitor cells (normal human bone marrows); assay: Megakaryocyte colony formation assay; type: cell-based; settings: Homo sapiens, 14-16 days
Procedure: Colony formation assay was conducted with normal human bone marrows treated in semi-solid collagen matrix with compound/IL-3/IL-6/Tpo for 14-16 days, and the results are summarized in Table 7.

[4] = biological target: T1, endogeneous human CRBN (U266 extract) (Homo sapiens, UniProt Q96SW2); assay: Thalidomide affinity bead competition assay; type: binding; settings: 3 μM
T1 construct: endogenous in cells; host or cells: U266 human multiple myeloma cells (NP-40 lysate)
Procedure: Affinity beads coupled to a thalidomide acid analog were incubated with the U266 extracts and, after extensive washing of the beads, the bound proteins were eluted. CRBN binding to the thalidomide-coupled affinity beads was determined by quantitative CRBN immunoblot determination.

[5] = system: Revlimid-resistant NCI-H929 R4-10; assay: Proliferation and viability by 7-AAD staining; type: cell-based; settings: Homo sapiens, NCI-H929, 120 h, read-out: IC50, proliferation
[6] = system: Revlimid-resistant NCI-H929 R2-10; assay: Proliferation and viability by 7-AAD staining; type: cell-based; settings: Homo sapiens, NCI-H929, 120 h, read-out: IC50, proliferation
[7] = system: Revlimid-resistant NCI-H929 R3-10; assay: Proliferation and viability by 7-AAD staining; type: cell-based; settings: Homo sapiens, NCI-H929, 120 h, read-out: IC50, proliferation
[8] = system: NCI-H929 cells (Control, Revlimid-sensitive, parental); assay: Proliferation and viability by 7-AAD staining; type: cell-based; settings: Homo sapiens, NCI-H929, 120 h, read-out: IC50, proliferation
[9] = system: Revlimid-resistant NCI-H929 R1-10; assay: Proliferation and viability by 7-AAD staining; type: cell-based; settings: Homo sapiens, NCI-H929, 120 h, read-out: IC50, proliferation
[10] = system: purified primary human T cells stimulated using immobilized anti-CD3 antibody; assay: T-cell costimulation, IL-2 production; type: cell-based
Procedure: CRBN ubiquitination was measured in HEK293T cells, which were transfected with an amino-terminal His-biotin-tagged CRBN construct, then preincubated with compounds for one hour followed by treatment with the MG132 proteasome inhibitor (to arrest degradation of ubiquitinated proteins). Cells were lysed and processed to measure CRBN ubiquitination by SDS-PAGE and immunoblot analysis using an anti-ubiquitin antibody. Cell proliferation studies were conducted in lenalidomide-sensitive and refractory multiple myeloma cells. […] T-cell costimulation was measured in purified primary human T cells stimulated using immobilized anti-CD3 antibody in cell culture for 2 days, and cytokine secretion was measured by ELISA.

[11] = system: normal donor peripheral blood mononuclear cells; assay: Immunoglobulin M and G production; type: cell-based; settings: Homo sapiens, PBMC
Procedure: Immunoglobulin M and G (“IgG and IgM”) production was measured from normal donor peripheral blood mononuclear cells by culturing in the presence of the B cell differentiation factors recombinant human IL-2 (20U/mL), IL-10 (50 ng/mL), IL-15 (10 ng/mL), His-tagged CD40 Ligand (50 ng/mL), polyHistidine mouse IgG1 antibody (5 μg/mL), and ODN 2006-Human TLR9 ligand (10 μg/mL) for 4 days, followed by IL-2, IL-10, IL-15, and IL-6 (50 ng/mL) for an additional 3 days. IgM and IgG were measured by ELISA.

[12] = 30 mg/kg monotherapy, Compound I-S: 84% S-enantiomer, 16% R-enantiomer
[13] = 30 mg/kg with Rituxan 1 mg/kg, Compound I-S: 84% S-enantiomer, 16% R-enantiomer
[14] = 40 mg/kg monotherapy, Compound I-S: 91% S-enantiomer, 9% R-enantiomer
[15] = Bone Marrow ID 0090128, read-out: Immature Colony IC50
[16] = Bone Marrow ID 0090128, read-out: Intermediate Colony IC50
[17] = Bone Marrow ID 0090616, read-out: Immature Colony IC50
[18] = Bone Marrow ID 0090616, read-out: Intermediate Colony IC50
[19] = Bone Marrow ID 0090714, read-out: Immature Colony IC50
[20] = Bone Marrow ID 0090714, read-out: Intermediate Colony IC50

Nc1cccc2c1CN(C1CCC(=O)NC1=O)C2=O (stereo not shown) [Revlimid, lenalidomide, reference compound]
Tumor Free Survival on Day 44 ([1]; 30 mg/kg in combination with Rituxan 2 mg/kg iv qw): 6/9 | % TGD ((T − C)/C) [2, 12]: 12% | % TGI at D12 (T/C) [2, 12]: 19% | % TGD ((T − C)/C) [2, 13]: 52% | % TGI at D12 (T/C) [2, 13]: 54% | % TGD ((T − C)/C) [2, 14]: 17% | % TGI at D12 (T/C) [2, 14]: 49% | IC50 [3, 15]: 1300 nM | IC50 [3, 16]: > 10000 nM | IC50 [3, 17]: 560 nM | IC50 [3, 18]: 1300 nM | IC50 [3, 19]: 410 nM | IC50 [3, 20]: > 10000 nM

rituximab [Rituxan, reference compound]
Tumor Free Survival on Day 44 ([1]; Rituxan 2 mg/kg iv qw alone): 2/10 | % TGD ((T − C)/C) ([2]; 1 mg/kg monotherapy): 34% | % TGI at D12 (T/C) ([2]; 1 mg/kg monotherapy): 19%

Nc1cccc2c1C(=O)N(C1CCC(=O)NC1=O)C2=O (stereo not shown) [Pomalidomide, pomalidomide, reference compound]
less CRBN bound to the affinity beads [4]: approximately 50% | IC50 [5]: 14000 nM | IC50 [6]: > 30000 nM | IC50 [7]: 6300 nM | IC50 [8]: 90 nM | IC50 [9]: > 30000 nM | IC50 [3, 15]: > 10000 nM | IC50 [3, 16]: > 10000 nM | IC50 [3, 17]: 350 nM | IC50 [3, 18]: 1400 nM | IC50 [3, 19]: 1000 nM | IC50 [3, 20]: > 10000 nM | EC50 [10]: 10 nM | IC50 ([11]; read-out: IgG production IC50): 63 nM | IC50 ([11]; read-out: IgM production IC50): 17 nM
